For 73 molecules, IC50 results are on record in the Kinase Knowledgebase extract (Sharma et al. 2016).

For orientation: IC50 means the concentration that gives 50% inhibition. Read a high IC50 as a need for much substance.

Structures are written as SMILES.

The assay deals with CDK2 (human) (UniProt P24941). Description: Enzyme Assay.
In the case of `O=[N+]([O-])c1ccc2c(c1)C(c1ccccc1Cl)=Nc1c(n[nH]c1-c1ccncc1)N2`, the IC50 lay in the range of 10 to 990 nM. As to `O=[N+]([O-])c1ccc2c(c1)C(c1ccccc1Cl)=Nc1c(n[nH]c1C(F)(F)F)N2`, the IC50 lay within 10 to 990 nM.

For `Cc1[nH]nc2c1N=C(c1ccccc1Cl)c1cc(N)ccc1N2`, the IC50 was 10 to 990 nM. The value for `CC(C)c1[nH]nc2c1N=C(c1ccccc1Cl)c1cc(N)ccc1N2` was 10 to 990 nM; that for `O=C(c1ccc2c(c1)C(c1ccccc1F)=Nc1c[nH]nc1N2)N1CCOCC1` was 10 to 990 nM.

For the molecule `Cc1[nH]nc2c1N=C(c1ccccc1Cl)c1cc(NS(=O)(=O)N(C)C)ccc1N2`, the IC50 fell in the range of 10 to 990 nM.

`O=[N+]([O-])c1ccc2c(c1)C(c1ccccc1Cl)=Nc1c(n[nH]c1-c1nccs1)N2`: the IC50 lay within 10 to 990 nM. On to `O=[N+]([O-])c1ccc2c(c1)C(c1ccccc1Cl)=Nc1c(n[nH]c1-c1ccccc1)N2`, for which the IC50 was in the range of 10 to 990 nM. For `O=[N+]([O-])c1ccc2c(c1)C(c1ccccc1)=Nc1c(n[nH]c1C1CC1)N2`, the IC50 is 10 to 990 nM. The molecule `COCc1[nH]nc2c1N=C(c1ccccc1Cl)c1cc([N+](=O)[O-])ccc1N2` displayed an IC50 of 10 to 990 nM. For `Cc1[nH]nc2c1N=C(c1ccccc1F)c1cc(C(=O)NCCN3CCOCC3)ccc1N2` the value was 10 to 990 nM. `Cc1[nH]nc2c1N=C(c1ccccc1F)c1cc(C#N)ccc1N2` displayed an IC50 of 10 to 990 nM. The molecule `CCOC(=O)c1ccc2c(c1)C(c1ccccc1F)=Nc1c[nH]nc1N2` displayed an IC50 of 10 to 990 nM. `COc1ccc2c(c1)C(c1ccccc1Cl)=Nc1c(n[nH]c1C)N2` came in with an IC50 of 10 to 990 nM. On to `O=[N+]([O-])c1ccc2c(c1)C(c1ccccc1F)=Nc1c[nH]nc1N2`, for which the IC50 was 10 to 990 nM. For `O=[N+]([O-])c1ccc2c(c1)C(c1ccccc1Cl)=Nc1c(n[nH]c1-c1cccc(S)c1)N2` the value was 10 to 990 nM; for `Cc1[nH]nc2c1N=C(c1ccccc1Cl)c1ccccc1N2`, 10 to 990 nM; for `NC(=O)c1ccc2c(c1)C(c1ccccc1F)=Nc1c[nH]nc1N2`, 10 to 990 nM. The value for `CSc1ccc(-c2[nH]nc3c2N=C(c2ccccc2Cl)c2cc([N+](=O)[O-])ccc2N3)cc1` was 10 to 990 nM. The molecule `O=[N+]([O-])c1cccc(C2=Nc3c[nH]nc3Nc3ccc([N+](=O)[O-])cc32)c1` had an IC50 of 10 to 990 nM. The molecule `Clc1ccccc1C1=Nc2c[nH]nc2Nc2ccccc21` showed an IC50 of 10 to 990 nM. The value for `Cc1[nH]nc2c1N=C(c1ccccc1)c1cc(F)ccc1N2` was 10 to 990 nM; that for `O=[N+]([O-])c1ccc2c(c1)C(c1ccccc1Cl)=Nc1c(n[nH]c1-c1c[nH]cn1)N2` was 10 to 990 nM; that for `Cc1[nH]nc2c1N=C(c1ccccc1Cl)c1cc(NS(=O)(=O)NCCl)ccc1N2` was 10 to 990 nM. The value for `O=[N+]([O-])c1ccc2c(c1)C(c1ccccc1Cl)=Nc1c(n[nH]c1-n1cccn1)N2` was 10 to 990 nM; that for `Cc1[nH]nc2c1N=C(c1ccccc1Cl)c1cc([N+](=O)[O-])ccc1N2` was 10 to 990 nM; that for `O=[N+]([O-])c1ccc2c(c1)C(c1ccccc1)=Nc1c[nH]nc1N2` was 10 to 990 nM.

In the case of `O=[N+]([O-])c1ccc2c(c1)C(c1ccccc1C(F)(F)F)=Nc1c[nH]nc1N2`, the IC50 was in the range of 10 to 990 nM. The value for `O=[N+]([O-])c1ccc2c(c1)C(c1ccccc1Cl)=Nc1c(n[nH]c1-c1ccco1)N2` was 10 to 990 nM. `Cc1[nH]nc2c1N=C(c1ccccc1)c1cc(Cl)ccc1N2` had an IC50 of 10 to 990 nM. On to `CCOC(=O)c1ccc2c(c1)C(c1ccccc1F)=Nc1c(n[nH]c1C)N2`, for which the half-inhibitory concentration (IC50) fell in the range of 10 to 990 nM. Molecule `O=[N+]([O-])c1ccc2c(c1)C(c1ccccc1Cl)=Nc1c(n[nH]c1-c1ccccc1S)N2` came in with an IC50 of 10 to 990 nM. The molecule `Cc1[nH]nc2c1N=C(c1ccccc1C(F)(F)F)c1cc([N+](=O)[O-])ccc1N2` gave an IC50 of 10 to 990 nM. The molecule `Cc1cccc(S)c1-c1[nH]nc2c1N=C(c1ccccc1Cl)c1cc([N+](=O)[O-])ccc1N2` displayed an IC50 of 10 to 990 nM. In turn, `Cc1[nH]nc2c1N=C(c1ccccc1)c1ccccc1N2` displayed a 50% inhibitory concentration (IC50) of 10 to 990 nM. With `O=[N+]([O-])c1ccc2c(c1)C(c1ccccc1Cl)=Nc1c(n[nH]c1-c1ccc[nH]1)N2`, the concentration for half-maximal inhibition (IC50) was in the range of 10 to 990 nM. `Cc1[nH]nc2c1N=C(c1ccccc1F)c1cc(C(N)=O)ccc1N2` returned an IC50 of 10 to 990 nM.

`Cc1[nH]nc2c1N=C(c1ccccc1F)c1cc(I)ccc1N2` had an IC50 of 10 to 990 nM. As for `O=[N+]([O-])c1ccc2c(c1)C(c1ccccc1Cl)=Nc1c[nH]nc1N2`, the IC50 is 10 to 990 nM.

In turn, `Cc1[nH]nc2c1N=C(c1ccccc1F)c1cc([N+](=O)[O-])ccc1N2` showed an IC50 of 10 to 990 nM. On to `O=Cc1[nH]nc2c1N=C(c1ccccc1Cl)c1cc([N+](=O)[O-])ccc1N2`, for which the IC50 lay in the range of 10 to 990 nM. As to `CCc1[nH]nc2c1N=C(c1ccccc1Cl)c1cc([N+](=O)[O-])ccc1N2`, the concentration for half-maximal inhibition (IC50) lay in the range of 10 to 990 nM. As for `CC(=O)Nc1ccc2c(c1)C(c1ccccc1Cl)=Nc1c(n[nH]c1C)N2`, the IC50 lay within 10 to 990 nM.

For the molecule `Cc1[nH]nc2c1N=C(c1ccccc1Cl)c1cc(NS(=O)(=O)N3CCOCC3)ccc1N2`, the IC50 lay in the range of 10 to 990 nM. On to `Cc1[nH]nc2c1N=C(c1ccccc1Cl)c1cc(Cl)ccc1N2`, for which the IC50 fell in the range of 10 to 990 nM. With `O=C(NCCO)c1ccc2c(c1)C(c1ccccc1F)=Nc1c[nH]nc1N2`, the IC50 lay in the range of 10 to 990 nM. Consider `C=Cc1[nH]nc2c1N=C(c1ccccc1Cl)c1cc([N+](=O)[O-])ccc1N2`, for which the IC50 was in the range of 10 to 990 nM. On to `O=[N+]([O-])c1ccc2c(c1)C(c1ccccc1Cl)=Nc1c(n[nH]c1-c1ccc(-c3ccccc3)cc1)N2`, for which the concentration for half-maximal inhibition (IC50) lay in the range of 10 to 990 nM. `O=[N+]([O-])c1ccc2c(c1)C(c1ccccc1Cl)=Nc1c(n[nH]c1-c1cccnc1)N2` yielded an IC50 of 10 to 990 nM. As to `CCC(C)c1[nH]nc2c1N=C(c1ccccc1Cl)c1cc([N+](=O)[O-])ccc1N2` (stereo not drawn), the IC50 lay within 10 to 990 nM.

Molecule `Cc1cn[nH]c1-c1[nH]nc2c1N=C(c1ccccc1Cl)c1cc([N+](=O)[O-])ccc1N2` came in with an IC50 of 10 to 990 nM. Regarding `O=[N+]([O-])c1cccc(-c2[nH]nc3c2N=C(c2ccccc2Cl)c2cc([N+](=O)[O-])ccc2N3)c1`, the 50% inhibitory concentration (IC50) was in the range of 10 to 990 nM.

On to `N#Cc1ccc2c(c1)C(c1ccccc1F)=Nc1c(n[nH]c1CO)N2`, for which the IC50 lay within 10 to 990 nM. The value for `O=[N+]([O-])c1ccc2c(c1)C(c1ccccc1Cl)=Nc1c(n[nH]c1C1CC1)N2` was 10 to 990 nM. Take `N#Cc1ccc2c(c1)C(c1ccccc1F)=Nc1c[nH]nc1N2`: the half-maximal inhibitory concentration (IC50) fell in the range of 10 to 990 nM. `CCCc1[nH]nc2c1N=C(c1ccccc1Cl)c1cc([N+](=O)[O-])ccc1N2` returned an IC50 of 10 to 990 nM.

Take `O=[N+]([O-])c1ccc2c(c1)C(c1ccccc1Cl)=Nc1c(n[nH]c1CO)N2`: the half-maximal inhibitory concentration (IC50) is 10 to 990 nM. The molecule `O=[N+]([O-])c1ccc2c(c1)C(c1ccccc1Cl)=Nc1c(n[nH]c1-c1cc[nH]n1)N2` registered an IC50 of 10 to 990 nM. Molecule `Cc1[nH]nc2c1N=C(c1ccccc1F)c1cc(F)ccc1N2` showed an IC50 of 10 to 990 nM. The molecule `CC(C)c1[nH]nc2c1N=C(c1ccccc1Cl)c1cc([N+](=O)[O-])ccc1N2` yielded an IC50 of 10 to 990 nM.

In turn, `O=[N+]([O-])c1ccc2c(c1)C(c1ccccc1Cl)=Nc1c(n[nH]c1-c1ccc(OC(F)(F)F)cc1)N2` showed a half-inhibitory concentration (IC50) of 10 to 990 nM. For `NNC(=O)c1[nH]nc2c1N=C(c1ccccc1Cl)c1cc([N+](=O)[O-])ccc1N2` the value was 10 to 990 nM; for `Cc1[nH]nc2c1N=C(c1ccccc1F)c1cc(Cl)ccc1N2`, 10 to 990 nM. `O=[N+]([O-])c1ccc2c(c1)C(c1ccccc1Cl)=Nc1c(n[nH]c1-c1cccc3c1OCO3)N2` yielded an IC50 of 10 to 990 nM. The value for `Cc1[nH]nc2c1N=C(c1ccccc1F)c1cc(C(=O)NCCO)ccc1N2` was 10 to 990 nM; that for `Cc1[nH]nc2c1N=C(c1ccccc1Cl)c1cc(NS(C)(=O)=O)ccc1N2` was 10 to 990 nM.

As to `Cc1[nH]nc2c1N=C(c1ccccc1F)c1cc(C(=O)N3CCOCC3)ccc1N2`, the IC50 lay within 10 to 990 nM.

Turning to `COc1cc(O)ccc1-c1[nH]nc2c1N=C(c1ccccc1Cl)c1cc([N+](=O)[O-])ccc1N2`, the IC50 was in the range of 10 to 990 nM. Consider `Cc1[nH]nc2c1N=C(c1ccccc1)c1cc([N+](=O)[O-])ccc1N2`, for which the IC50 lay in the range of 10 to 990 nM. In turn, `C=CC(=O)Nc1ccc2c(c1)C(c1ccccc1Cl)=Nc1c(n[nH]c1C)N2` yielded an IC50 of 10 to 990 nM. Molecule `NC(=O)c1[nH]nc2c1N=C(c1ccccc1Cl)c1cc([N+](=O)[O-])ccc1N2` showed an IC50 of 10 to 990 nM. The value for `Cc1[nH]nc2c1N=C(c1ccccc1F)c1ccccc1N2` was 10 to 990 nM; that for `N#Cc1[nH]nc2c1N=C(c1ccccc1Cl)c1cc([N+](=O)[O-])ccc1N2` was 10 to 990 nM.
